# In PubChem BioAssay AID1963825 (Molecular Pharmacology Branch, DTP, NCI, 2024):
# Values joined by “and” are separate entries in the source; they are usually repeats but may differ in a detail not shown here. Identical values can stand only once.
# Assay: Anticancer human tumor 997537-175-T-J1-PDC patient-derived colon adenocarcinoma cell line growth inhibition [POLQ]
# Settings: 997537-175-T-J1-PDC complex spheroid viability, combination with POLQ inhibitors; for viability, T/C: stronger effect = lower value
# Description: Multicellular complex tumor spheroid response to Polymerase (POL) inhibitors (novobiocin, ART-558, RP6685) in combination with a variety of drugs and investigational agents in selected tumor cell lines
# The POL inhibitors (novobiocin, ART-558, and RP6685) were evaluated both individually and in combination with standard of care and investigational anticancer small molecules within a complex spheroid model of solid tumors. . Complex spheroids include a stromal component modeled by human endothelial cells (HUVEC) and fibroblasts modeled by human mesenchymal stem cells (MSCs). The concentration ranges selected for each drug and investigational agent were based upon clinically achievable concentrations if the clinical Cmax of the agent was known.
# Compounds. The drugs and investigational agents: novobiocin (NSC847541), ART-558 (NSC835418), RP-6685 (NSC848927), peposertib (NSC802822), ceralasertib (NSC780249), elimusertib (NSC800525), camonsertib (NSC841442), AZD-1390 (NSC803789), olaparib (NSC753686), talazoparib (NSC767125), rucaparib (NSC756644), sotorasib (NSC818433), MRTX-1133 (NSC836407), SN-38 (NSC673596), topotecan (NSC609699), epotoside (NSC141540), doxorubicin (NSC123127), gemcitabine (NSC613327), 5-fluorouracil (NSC19893), paclitaxel (NSC125973), vemurafenib (NSC761431), MSA-2 (NSC828583), SN-011 (NSC837082), adavosertib (NSC754352), prexasertib (NSC758257), carboplatin (NSC241240) and oxaliplatin (NSC266046), were obtained from the National Cancer Institute (NCI) Developmental Therapeutics Program Chemical Repository (21). The FDA-approved anticancer drug set is available from the Developmental Therapeutics Program at https://dtp.cancer.gov/organization/dscb/obtaining/. […] The stock solutions were prepared in dimethyl sulfoxide (DMSO, Sigma-Aldrich, St. Louis, MO, cat. D2650), except for the platinum compounds which were prepared in saline (Quality Biological, Gaithersburg, MD, cat. 114-055-101), at 800-fold the tested concentration and stored at -70 degrees C prior to their use. All drugs and investigational agents were tested over a range starting from a high concentration at or near the clinical Cmax and decreasing in half-log increments. If the clinical Cmax for an agent had not been determined, the highest concentration tested was 10 microM, except for SN-38, which was tested at a high concentration of 1 microM.
# Cell Culture. All cells were maintained in an incubator at 37 degrees C and 5% CO2 with 95% humidity. The PDC lines were cultured according to standard operating procedures established by the NCI PDMR (https://pdmr.cancer.gov). Table 3 of the manuscript, lists the cell lines along with the number of the three cell types plated to form the mct-spheroids and media for tumor cell growth. After thawing, all PDC lines, except 997537-175-T-J1-PDC and 415267-285-R-J2-PDC, were cultured in Matrigel-coated flasks prepared with a working solution of 1X Ham's F-12 nutrient mix, without supplementation (Thermo Fisher Scientific, cat. 11765054), 100 U/mL penicillin-streptomycin (Thermo Fisher Scientific, cat. 15140122), and 2.5% Matrigel (Corning Inc., Corning, NY, cat. 354248) for the first three passages. The two PDC lines 997537-175-T-J1-PDC and 415267-285-R-J2-PDC were cultured on uncoated flasks. The 857933-349-R-J2-PDC line was cultured in 6C/Colon 1B media containing advanced DMEM/F-12 (Thermo Fisher Scientific, cat. 12634028), 10 mM HEPES (Thermo Fisher Scientific, cat. 15630080), 1X GlutaMAX supplement (Thermo Fisher Scientific, cat. 35050061), 0.1 mg/mL primocin (InvivoGen, San Diego, CA, cat. ant-pm-2), 10% defined fetal bovine serum, heat inactivated (HyClone Laboratories Inc., Logan, UT, cat. SH30070.03HI), 50% L-WRN conditioned media (ATCC, cat. CRL-3276), 1.25 mM N-Acetyl-L-cysteine (Sigma-Aldrich, cat. A9165), 10 mM nicotinamide (Sigma-Aldrich, cat. N0636), 1X B-27 supplement (Thermo Fisher Scientific, cat. 17504044), 1X N-2 supplement (Thermo Fisher Scientific, cat. […]
# 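Also: luminescence signal used as a surrogate for viable cells; spheroids exposed to drugs for seven days before readout.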
structure (smiles),measurement,setting,value
CC1COCCN1c1cc(-c2ccnn2C)c2ccnc(-c3ccn[nH]3)c2n1 (centres undefined) + Cc1cccc(N(C)C(=O)C2C(O)CCN2c2nc(C)cc(C(F)(F)F)c2C#N)c1,IC50,"curve of first compound, second compound 0.0316 µM",> 10000 nM
same,IC50,"curve of first compound, second compound 0.1 µM",> 10000 nM
same,IC50,"curve of first compound, second compound 0.316 µM",1480 nM
same,IC50,"curve of first compound, second compound 1 µM",> 10000 nM
same,IC50,"curve of first compound, second compound 3.16 µM",761 nM
same,IC50,"curve of first compound, second compound 10 µM",> 10000 nM
same,"viability, T/C","second compound 0.0316 µM, first compound 0.0316 µM",88.5%
same,"viability, T/C","second compound 0.0316 µM, first compound 0.1 µM",86.1%
same,"viability, T/C","second compound 0.0316 µM, first compound 0.316 µM",71.5%
same,"viability, T/C","second compound 0.0316 µM, first compound 1 µM",43.5%
same,"viability, T/C","second compound 0.0316 µM, first compound 3.16 µM",45.5%
same,"viability, T/C","second compound 0.0316 µM, first compound 10 µM",63.2%
same,"viability, T/C","second compound 0.1 µM, first compound 0.0316 µM",87.9%
same,"viability, T/C","second compound 0.1 µM, first compound 0.1 µM",87%
same,"viability, T/C","second compound 0.1 µM, first compound 0.316 µM",73.4%
same,"viability, T/C","second compound 0.1 µM, first compound 1 µM",53.4%
same,"viability, T/C","second compound 0.1 µM, first compound 3.16 µM",53.2%
same,"viability, T/C","second compound 0.1 µM, first compound 10 µM",54.7%
same,"viability, T/C","second compound 0.316 µM, first compound 0.0316 µM",94.2%
same,"viability, T/C","second compound 0.316 µM, first compound 0.1 µM",93.5%
same,"viability, T/C","second compound 0.316 µM, first compound 0.316 µM",74%
same,"viability, T/C","second compound 0.316 µM, first compound 1 µM",50.5%
same,"viability, T/C","second compound 0.316 µM, first compound 3.16 µM",52.4%
same,"viability, T/C","second compound 0.316 µM, first compound 10 µM",45.3%
same,"viability, T/C","second compound 1 µM, first compound 0.0316 µM",96.6%
same,"viability, T/C","second compound 1 µM, first compound 0.1 µM",84.9%
same,"viability, T/C","second compound 1 µM, first compound 0.316 µM",48.8%
same,"viability, T/C","second compound 1 µM, first compound 1 µM",47.1%
same,"viability, T/C","second compound 1 µM, first compound 3.16 µM",61.4%
same,"viability, T/C","second compound 1 µM, first compound 10 µM",65.2%
same,"viability, T/C","second compound 3.16 µM, first compound 0.0316 µM",107%
same,"viability, T/C","second compound 3.16 µM, first compound 0.1 µM",80.8%
same,"viability, T/C","second compound 3.16 µM, first compound 0.316 µM",53.7%
same,"viability, T/C","second compound 3.16 µM, first compound 1 µM",30.5%
same,"viability, T/C","second compound 3.16 µM, first compound 3.16 µM",67.1%
same,"viability, T/C","second compound 3.16 µM, first compound 10 µM",48.6%
same,"viability, T/C","second compound 10 µM, first compound 0.0316 µM",72.1%
same,"viability, T/C","second compound 10 µM, first compound 0.1 µM",80.7%
same,"viability, T/C","second compound 10 µM, first compound 0.316 µM",54.8%
same,"viability, T/C","second compound 10 µM, first compound 1 µM",42%
same,"viability, T/C","second compound 10 µM, first compound 3.16 µM",68.9%
same,"viability, T/C","second compound 10 µM, first compound 10 µM",50.1%
COc1cccc2c1C(=O)c1c(O)c3c(c(O)c1C2=O)CC(O)(C(=O)CO)CC3OC1CC(N)C(O)C(C)O1 (centres undefined),"viability, T/C",compound 0.0316 µM,91.6% and 101% and 113%
same,"viability, T/C",compound 0.1 µM,81.9% and 97% and 103%
same,"viability, T/C",compound 0.316 µM,87.3% and 68.5% and 110%
same,"viability, T/C",compound 1 µM,93.9% and 90% and 81.8%
same,"viability, T/C",compound 3.16 µM,57.7% and 37.8% and 27.6%
same,"viability, T/C",compound 10 µM,8.92% and 9.36% and 7.86%
same,IC50,curve of compound,3790 nM and 2410 nM and 1970 nM
CC1COCCN1c1cc(-c2ccnn2C)c2ccnc(-c3ccn[nH]3)c2n1 (centres undefined),"viability, T/C",compound 0.0316 µM,94.7% and 97.9% and 86.9%
same,"viability, T/C",compound 0.1 µM,62% and 63.5% and 79.7%
same,"viability, T/C",compound 0.316 µM,64.5% and 49% and 65.9%
same,"viability, T/C",compound 1 µM,44.2% and 44.4% and 50.7%
same,"viability, T/C",compound 3.16 µM,68% and 32.4% and 51.1%
same,"viability, T/C",compound 10 µM,60.6% and 53.7% and 53.6%
CC[C@@]1(O)C(=O)OCc2c1cc1n(c2=O)Cc2cc3c(CN(C)C)c(O)ccc3nc2-1,"viability, T/C",compound 0.000316 µM,100% and 93.8% and 93.3%
same,"viability, T/C",compound 0.001 µM,96.1% and 102% and 112%
same,"viability, T/C",compound 0.00316 µM,98.1% and 91.1% and 111%
same,"viability, T/C",compound 0.01 µM,105% and 101% and 97.3%
same,"viability, T/C",compound 0.0316 µM,94.5% and 75.5% and 93%
same,"viability, T/C",compound 0.1 µM,71.6% and 61.9% (2×)
same,IC50,curve of compound,> 100 nM
Nc1ccn(C2OC(CO)C(O)C2(F)F)c(=O)n1 (centres undefined),"viability, T/C",compound 0.0316 µM,104% (2×) and 98.4%
same,"viability, T/C",compound 0.1 µM,93.9% and 111% and 97.5%
same,"viability, T/C",compound 0.316 µM,85.7% and 84.1% and 75%
same,"viability, T/C",compound 1 µM,69.6% and 75.9% and 84.9%
same,"viability, T/C",compound 3.16 µM,80.9% and 85.4% and 87.5%
same,"viability, T/C",compound 10 µM,85% and 80% and 70.2%
same,IC50,curve of compound,> 10000 nM
